Here are results for 20 molecules from patent publication US20030077222A1, “Individualization of therapy with analgesics” (McGill University, priority 2001, published 2003).

pIC50: −log10 of the molar value. Read-outs that look alike come from different tables or passages of the source. Marks after values point to notes of the source that are not given here.

One data set deals with AAMU-Ab. The data set can be described thus: Competitive antigen ELISA, cross-reactivity of AAMU-Ab. The class given is binding, rabbit. The settings on record: for % Cross-Reaction AAMU-Ab: competitive antigen ELISA, 0 = absence of inhibition or inhibition no higher than 40% at highest concentration tested (5×10^−3 M). The procedure: (§1) Four mature females New Zealand white rabbits (Charles River Canada, St-Constant, Que., Canada) are used for antibody production. The protocol employed in this study was approved by the McGill University Animal Care Committee in accordance with the guidelines from the Canadian Council on Animal Care. Antibodies of the present invention may be monoclonal or polyclonal antibodies.
(§2) A 0.5 mL aliquot of the emulsion ([…] of antigen) is injected per rabbit intramuscularly or subcutaneously. Rabbits are subsequently boosted at intervals of three weeks with […] of antigen emulsified in incomplete Freund's adjuvant. […] Antisera are stored at 4° C. in the presence of 0.01% sodium azide.
(§3) Buffers and water without additives are filtered through millipore filters and kept for 1 week. BSA, antibodies, Tween™ 20 and horse radish peroxidase conjugates are added to these buffers and water just prior to use. Urine samples are usually collected 4 hours after drinking a cup of coffee (instant or brewed with approximately 100 mg of caffeine per cup) and stored at −80° C. The urine samples are diluted 10 times with sodium phosphate buffer (620 mosm, pH 7.50) and are subsequently diluted with water to give concentrations of AAMU and 1X no higher than 3×10^−6 M in the ELISA. All the pipettings are done with an eight-channel pipette, except those of the antibody and sample solutions. Starting with the last well, 100 μL of a carbonate buffer (100 mM, pH 9.6) containing 2.5 μg mL−^1 antibodies are added to each well. After 90 min. at room temperature, the wells are washed three times with […] of TPB: isotonic sodium phosphate buffer (310 mosm, pH 7.50) containing 0.05% Tween™ 20.
(§4) After the initial wash, unoccupied sites are blocked by incubation for 90 min. at room temperature with 100 μL TBP containing 3% BSA. The wells are washed four times with 100 μL TPB. […] The microplate is gently shaken with an orbital shaker at room temperature for 3-4 hours. The wells are washed three times with 100 μL TPB containing 1% BSA and three times with water containing 0.05% Tween™ 20. To the washed plate is added 150 μL of a substrate buffer composed of citric acid (25 mM) and sodium phosphate dibasic buffer (50 mM, pH 5.0) containing 0.06% hydrogen peroxide and 0.04% o-phenylenediamine hydrochloride.
(§5) Buffers and water without additives were filtered through millipore filters and kept for 1 week. BSA, antibodies, Tween™ 20 and horse radish peroxidase conjugates were added to these buffers and water just prior to use. Urine samples were usually collected 4 hours after drinking a cup of coffee (instant or brewed with approximately 100 mg of caffeine per cup) and stored at −80° C. They were diluted 10 times with sodium phosphate buffer (620 mosm, pH 7.50) and were subsequently diluted with water to give concentrations of AAMU and 1X no higher than 3×10^−6 M in the ELISA. All the pipettings were done with an eight-channel pipette, except those of the antibody and sample solutions. Starting with the last well, 100 μL of a carbonate buffer (100 mM, pH 9.6) containing 2.5 μg mL−^1 antibodies was pipetted. After 90 min. at room temperature, the wells were washed three times with 100 μL of TPB: isotonic sodium phosphate buffer (310 mosm, pH 7.50) containing 0.05% Tween™ 20.
(§6) After the initial wash, unoccupied sites were blocked by incubation for 90 min. at room temperature with 100 μL TBP containing 3% BSA. The wells were washed four times with 100 μL TPB. […] The microplate was gently shaken with an orbital shaker at room temperature for 3-4 hours. The wells were washed three times with […] TPB containing 1% BSA and three times with water containing 0.05% Tween™ 20. To the washed plate was added 150 μL of a substrate buffer composed of citric acid (25 mM) and sodium phosphate dibasic buffer (50 mM, pH 5.0) containing 0.06% hydrogen peroxide and 0.04% o-phenylenediamine hydrochloride.
Background: An ELISA detects its analyte on a solid surface through an enzyme-linked reagent.

The subject of another data set is 1X-Ab. Description: Competitive antigen ELISA, cross-reactivity of 1X-Ab. The class given is binding, rabbit. The settings on record: for % Cross-Reaction 1X-Ab: competitive antigen ELISA, 0 = absence of inhibition or inhibition no higher than 40% at highest concentration tested (5×10^−3 M). Here is the method:
as §1, §2, §3, §4, §5, §6

The conditions of data set [1]: cited from earlier work.
The conditions of data set [2]: cited from earlier work. This is another data set of the same source.

For the molecule `Cn1c(=O)c2c(ncn2C)n(C)c1=O` [1,3,7-Trimethyl Xanthine (Caffeine), 1,3,7-Trimethyl Xanthine], the “% Cross-Reaction AAMU-Ab” value with AAMU-Ab was found to be 0%. Moreover, the “% Cross-Reaction 1X-Ab” value in the data set with 1X-Ab came out at 0%.
As to `Cn1c(=O)c2[nH]cnc2n(C)c1=O` [1,3-Dimethyl Xanthine (Theophylline), 1,3-Dimethyl Xanthine], the “% Cross-Reaction AAMU-Ab” value in the data set on AAMU-Ab came out at 0%. In the data set on 1X-Ab, the “% Cross-Reaction 1X-Ab” value is given as 0.2%.
On the same counts, the results for `Cn1c(=O)[nH]c2ncn(C)c2c1=O` [1,7-Dimethyl Xanthine (Paraxanthine), 1,7-Dimethyl Xanthine] are 0% and 0.5%.
On the same counts, the results for `Cn1c(=O)[nH]c2[nH]c(=O)n(C)c2c1=O` [1,7-Dimethyluric acid] are 0% and 0%.
Regarding `Cn1c(=O)[nH]c2nc[nH]c2c1=O` [1-Methyl Xanthine (1X), 1-Methyl Xanthine], the “% Cross-Reaction AAMU-Ab” value with AAMU-Ab is reported as 0%. For the same molecule, the “% Cross-Reaction 1X-Ab” value with 1X-Ab amounted to 100%. In addition, the pIC50 in the data set on 1X-Ab (read-out: concentration required for 50% inhibition in the competitive antigen ELISA, 1X-Ab) was 5.00.
On to `Cn1c(=O)[nH]c2[nH]c(=O)[nH]c2c1=O` [1-Methyluric acid], for which the “% Cross-Reaction AAMU-Ab” value in the data set on AAMU-Ab was found to be 0%. Further, the “% Cross-Reaction 1X-Ab” value in the data set with 1X-Ab stood at 11%.
On the same counts, the results for `Cn1cnc2c1c(=O)[nH]c(=O)n2C` [3,7-Dimethyl Xanthine (Theobromine), 3,7-Dimethyl Xanthine] are 0% and 0%.
For `Cn1c(=O)[nH]c(=O)c2[nH]cnc21` [3-Methyl Xanthine], in that order: 0% and 0%.
Turning to `CC(=O)Nc1c(N)n(C)c(=O)n(C)c1=O` [5-Acetamino-6-amino-1,3-dimethyluracil], in the data set on AAMU-Ab, the “% Cross-Reaction AAMU-Ab” value turned out to be 0%. In addition, the “% Cross-Reaction 1X-Ab” value in the data set on 1X-Ab is reported as 0%.
As for `CC(=O)Nc1c(N)n(C)c(=O)[nH]c1=O` [5-Acetamino-6-amino-1-methyluracil], the “% Cross-Reaction AAMU-Ab” value with AAMU-Ab amounted to 100%. Moreover, in the data set with AAMU-Ab (read-out: concentration required for 50% inhibition in the competitive antigen ELISA, AAMU-Ab), the pIC50 was 5.82. The “% Cross-Reaction 1X-Ab” value with 1X-Ab was found to be 0%.
Turning to `CC(=O)Nc1c(N)[nH]c(=O)[nH]c1=O` [5-Acetamino-6-amino-uracil], in the data set on AAMU-Ab, the “% Cross-Reaction AAMU-Ab” value was 0.6%. Also, the “% Cross-Reaction 1X-Ab” value in the data set on 1X-Ab came out at 0%.
Take `Cn1cnc2[nH]c(=O)[nH]c(=O)c21` [7-Methyl Xanthine]: the “% Cross-Reaction AAMU-Ab” value in the data set on AAMU-Ab stood at 0%. The “% Cross-Reaction 1X-Ab” value with 1X-Ab amounted to 0%.
In the case of `Cc1nc2[nH]c(=O)[nH]c(=O)c2[nH]1` [8-Methyl Xanthine], in the data set with AAMU-Ab, the “% Cross-Reaction AAMU-Ab” value was determined as 0%. For the same molecule, the “% Cross-Reaction 1X-Ab” value in the data set on 1X-Ab worked out at 0%.
In the case of `Nc1nc2nc[nH]c2c(=O)[nH]1` [Guanine], the “% Cross-Reaction AAMU-Ab” value with AAMU-Ab is 0%. In the data set with 1X-Ab, the “% Cross-Reaction 1X-Ab” value is 0%.
Turning to `O=c1[nH]cnc2nc[nH]c12` [Hypoxanthine], the “% Cross-Reaction AAMU-Ab” value in the data set on AAMU-Ab came out at 0%. Further, the “% Cross-Reaction 1X-Ab” value in the data set on 1X-Ab came to 0%.
Take `O=c1cc[nH]c(=O)[nH]1` [Uracil]: the “% Cross-Reaction AAMU-Ab” value with AAMU-Ab is 0%. For the same molecule, the “% Cross-Reaction 1X-Ab” value in the data set with 1X-Ab was determined as 0%.
As for `O=c1[nH]c(=O)c2[nH]c(=O)[nH]c2[nH]1` [Uric acid], the “% Cross-Reaction AAMU-Ab” value in the data set with AAMU-Ab was 0%. Moreover, in the data set with 1X-Ab, the “% Cross-Reaction 1X-Ab” value stood at 0%.
On to `O=c1[nH]c(=O)c2[nH]cnc2[nH]1` [Xanthine], for which the “% Cross-Reaction AAMU-Ab” value in the data set on AAMU-Ab is given as 0^a %. Besides, the “% Cross-Reaction 1X-Ab” value with 1X-Ab is listed as 0%.
Consider `Nc1ccc(S(=O)(=O)c2ccc(N)cc2)cc1` [dapsone], for which the “adverse reactions to dapsone” value is 17% in data set [1] (fast acetylators) and 46% in data set [1] (slow acetylators).
Turning to `COc1cccc(C2(O)CCCCC2CN(C)C)c1` (stereo not drawn) [tramadol], the “experimental pain model procedures with statistically significant effects” value in data set [2] (extensive metabolizers (CYP2D6), 15 individuals) was “seven of seven”; in data set [2] (poor metabolizers (CYP2D6), 12 individuals), “three of seven”.
